In patent US7872006B2, “Pyrazole compounds having cannabinoid receptor (CB1) antagonizing activity” (Mitsubishi Tanabe Pharma Corporation, priority 2005, dated 2011) one finds IC50 data, which are given here for twelve compounds.

A word on the IC50: it is the concentration at which inhibition is half-maximal.

Some results are limits rather than exact numbers.

In the first experiment the target is T1, Human CB1 receptor (Homo sapiens, UniProt P21554).
T1 construct: host or cells: CHO cells; the membrane fraction was prepared in house from the purchased recombinant line
T1 sequence (P21554 whole entry): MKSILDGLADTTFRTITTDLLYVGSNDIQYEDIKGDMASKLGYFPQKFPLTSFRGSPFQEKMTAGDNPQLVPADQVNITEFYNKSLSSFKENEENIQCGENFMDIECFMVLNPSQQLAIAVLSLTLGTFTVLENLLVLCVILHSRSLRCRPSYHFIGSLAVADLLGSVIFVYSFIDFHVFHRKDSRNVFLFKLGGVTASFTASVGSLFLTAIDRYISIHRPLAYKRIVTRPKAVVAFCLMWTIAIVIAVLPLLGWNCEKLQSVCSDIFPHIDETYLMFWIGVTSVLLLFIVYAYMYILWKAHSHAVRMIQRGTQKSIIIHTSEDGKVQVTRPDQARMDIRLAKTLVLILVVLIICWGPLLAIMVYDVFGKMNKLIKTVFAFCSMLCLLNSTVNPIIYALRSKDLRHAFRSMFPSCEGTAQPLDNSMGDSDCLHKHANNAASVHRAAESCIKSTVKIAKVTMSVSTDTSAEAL
Description: Human CB1 receptor binding assay ([3H]-CP55940 displacement).
Settings: not given
Here is the method: [Human CB1 Receptor Binding Assay]
(1) Preparation of human CB1 receptor (membrane fraction):
Human CB1-expressing cell line: hCB1/CHO#C3 (Euroscreen)
The receptor-expressing cells cultivated in the above medium were washed with phosphate buffer (×2) and thereto was added Buffer A (2 mL) under ice-cooling or 4° C. (the following procedures were also carried out at the same temperature). The cells were collected by using a cell-scraper, treated by a microtip-type ultrasonicator for 20 seconds (pulse-on: 2 sec, pulse-off: 1 sec) and centrifuged (500×g, 15 min). The supernatant was separated and centrifuged (43000×g, 60 min). The resultant pellet was suspended in Buffer A and homogenized with a potter-type homogenizer. To the homogenate was added an equal volume of 80% glycerol and stored at −80° C.
(2) Procedure of CB1 Receptor Binding Assay:
Radioligand: [^3H]-CP55940 (30 nM/7992 dpm/μL) prepared by diluting 8.3 µM solution of the radioligand with Buffer B
Each well of the assay plate (96-well, Costar Code#3371) was filled with Buffer B (140 μL), a solution of each test compound in dimethylsulfoxide (20 μL, […]), radioligand (20 μL) and membrane preparation (20 μL, 0.5 µg/20 μL) and the mixture was incubated at 30° C. for 90 minutes to proceed the binding reaction. The reaction mixture was harvested to each well of a plate presoaked with the above coating solution (Packard Unifilter GF/B, #6005177). The plate was washed with Buffer C (200 μL×10) and dried at 50° C. for 1 hour and Microscinti 40 (40 μL) was added to each well. The bound radiolabel was quantitated by scintilation counting (Top Count NXT, Packard). IC50 value of each test compound against the radioligand-binding to CB1 receptors was calculated on the basis of the quantitated radiolabel activity by using Graphpad Prism 3.02.
With `COc1c(C(=O)NN2CCN(c3ccc(C(F)F)cn3)CC2)nn(-c2ccccc2Cl)c1-c1ccc(Cl)cc1` [Example 339, 1-(2-chlorophenyl)-5-(4-chlorophenyl)-3-[N-[4-(5-difluoromethyl-pyridin-2-yl)piperazin-1-yl]carbamoyl]-4-methoxy-1H-pyrazole], the IC50 lay within 10 to 100 nM.

As to `COc1c(C(=O)NC2CCCC2)nn(-c2ccccc2Cl)c1-c1ccc(Cl)cc1` [Example 55], the half-inhibitory concentration (IC50) was 10 to 100 nM.

Still in this experiment, the particulars now being: radioligand [3H]-CP55940, membrane fraction of hCB1/CHO cells, 30° C. for 90 minutes; read-out: IC50.
Take `CCNC1(C(N)=O)CCN(C(=O)c2nn(-c3ccccc3Cl)c(-c3ccc(Cl)cc3)c2O)CC1` [Example 279, 1-(2-chlorophenyl)-5-(4-chlorophenyl)-4-hydroxy-3-[[4-carbamoyl-4-(ethylamino)piperidino]carbonyl]-1H-pyrazole]: the 50% inhibitory concentration (IC50) was 10 to 100 nM.

Take `CCNC(=O)NCCOc1c(C(=O)NN2CCCC2)nn(-c2ccccc2Cl)c1-c1ccc(Cl)cc1` [Example 288, 1-(2-chlorophenyl)-5-(4-chlorophenyl)-4-[2-(N′-ethylureido)ethoxy]-3-[N-(1-pyrrolidinyl)carbamoyl]-1H-pyrazole]: the half-inhibitory concentration (IC50) lay in the range of 100 to 500 nM.

In the case of `COc1c(C(=O)NCC(F)(F)F)nn(-c2ccccc2Cl)c1-c1ccc(Cl)cc1` [Example 4], the concentration for half-maximal inhibition (IC50) was in the range of 10 to 100 nM.

For the compound `COCCOc1c(C(=O)NN2CCCC2)nn(-c2ccccc2Cl)c1-c1ccc(C(F)(F)F)cc1` [Example 148], the IC50 fell in the range of 10 to 100 nM.

Take `COc1c(C(=O)CN2CCS(=O)(=O)CC2)nn(-c2ccccc2Cl)c1-c1ccc(Cl)cc1` [Example 36, 1-(2-chlorophenyl)-5-(4-chlorophenyl)-4-methoxy-3-[1-(1,1-dioxothiomorpholino)acetyl]-1H-pyrazole]: the concentration for half-maximal inhibition (IC50) fell in the range of 10 to 100 nM.

Take `O=C(NN1CCC(F)(F)CC1)c1nn(-c2ccccc2Cl)c(-c2ccc(Cl)cc2)c1OC(F)F` [Example 307]: the half-inhibitory concentration (IC50) was < 10 nM.

Regarding “1-(2-chlorophenyl)-5-(4-chlorophenyl)-4-hydroxy-3-[N′-(4-tetrahydropyranyl)ureido]-1H-pyrazole [Example 18]”, the IC50 lay within 10 to 100 nM.

Regarding `NC(=O)COc1c(C(=O)NN2CCC(C(N)=O)(c3ccccc3)CC2)nn(-c2ccccc2Cl)c1-c1ccc(Cl)cc1` [Example 276, 1-(2-chlorophenyl)-5-(4-chloro-phenyl)-4-carbamoylmethoxy-3-[N-(4-carbamoyl-4-phenylpiperidin-1-yl)carbamoyl]-1H-pyrazole], the concentration for half-maximal inhibition (IC50) lay in the range of 10 to 100 nM.

As to `COc1c(C(=O)NN(C)C)nn(-c2ccccc2Cl)c1-c1ccc(C(F)(F)F)cc1` [Example 134], the IC50 lay in the range of 10 to 100 nM.

Regarding `COc1c(C(=O)NN2CCN(C(=O)c3ccc(F)cc3F)CC2)nn(-c2ccccc2Cl)c1-c1ccc(Cl)cc1` [Example 216], the 50% inhibitory concentration (IC50) fell in the range of 10 to 100 nM.
